Reference: article PMC11277489, “Novel Piperazine Derivatives of Vindoline as Anticancer Agents” (International Journal of Molecular Sciences, 2024)

Legend:
Format in all cases: cell-based
KM12 = experiment: NCI60 five-dose screen, Colon Cancer; conditions: Homo sapiens; KM12, Colon Cancer; five-dose screen; read-out: GI50
SK-MEL-2 = experiment: NCI60 five-dose screen, Melanoma; conditions: Homo sapiens; SK-MEL-2, Melanoma; five-dose screen; read-out: GI50
A498 = experiment: NCI60 five-dose screen, Renal Cancer; conditions: Homo sapiens; A498, Renal Cancer; five-dose screen; read-out: GI50
U251 = experiment: NCI60 five-dose screen, CNS Cancer; conditions: Homo sapiens, U-251; U251, CNS Cancer; five-dose screen; read-out: GI50
NCI-H226 = experiment: NCI60 five-dose screen, Non-small Cell Lung Cancer; conditions: Homo sapiens; NCI-H226, Non-small Cell Lung Cancer; five-dose screen; read-out: GI50
IGROV1 = experiment: NCI60 five-dose screen, Ovarian Cancer; conditions: Homo sapiens, IGROV-1; IGROV1, Ovarian Cancer; five-dose screen; read-out: GI50
HT29 = experiment: NCI60 five-dose screen, Colon Cancer; conditions: Homo sapiens, HT-29; HT29, Colon Cancer; five-dose screen; read-out: GI50
T-47D = experiment: NCI60 five-dose screen, Breast Cancer; conditions: Homo sapiens, T47D; T-47D, Breast Cancer; five-dose screen; read-out: GI50
OVCAR-8 = experiment: NCI60 five-dose screen, Ovarian Cancer; conditions: Homo sapiens; OVCAR-8, Ovarian Cancer; five-dose screen; read-out: GI50
NCI-H522 = experiment: NCI60 five-dose screen, Non-small Cell Lung Cancer; conditions: Homo sapiens; NCI-H522, Non-small Cell Lung Cancer; five-dose screen; read-out: GI50
SF-295 = experiment: NCI60 five-dose screen, CNS Cancer; conditions: Homo sapiens; SF-295, CNS Cancer; five-dose screen; read-out: GI50
SF-539 = experiment: NCI60 five-dose screen, CNS Cancer; conditions: Homo sapiens; SF-539, CNS Cancer; five-dose screen; read-out: GI50
LOX IMVI = experiment: NCI60 five-dose screen, Melanoma; conditions: Homo sapiens, Melanoma, five-dose screen, read-out: GI50
SR = experiment: NCI60 five-dose screen, Leukemia; conditions: Homo sapiens, Leukemia, five-dose screen, read-out: GI50
DU-145 = experiment: NCI60 five-dose screen, Prostate Cancer; conditions: Homo sapiens; DU-145, Prostate Cancer; five-dose screen; read-out: GI50
HCT-116 = experiment: NCI60 five-dose screen, Colon Cancer; conditions: Homo sapiens; HCT-116, Colon Cancer; five-dose screen; read-out: GI50
SF-268 = experiment: NCI60 five-dose screen, CNS Cancer; conditions: Homo sapiens; SF-268, CNS Cancer; five-dose screen; read-out: GI50
MDA-MB-435 = experiment: NCI60 five-dose screen, Melanoma; conditions: Homo sapiens; MDA-MB-435, Melanoma; five-dose screen; read-out: GI50
COLO 205 = experiment: NCI60 five-dose screen, Colon Cancer; conditions: Homo sapiens; COLO 205, Colon Cancer; five-dose screen; read-out: GI50
EKVX = experiment: NCI60 five-dose screen, Non-small Cell Lung Cancer; conditions: Homo sapiens, Non-small Cell Lung Cancer, five-dose screen, read-out: GI50
SNB-19 = experiment: NCI60 five-dose screen, CNS Cancer; conditions: Homo sapiens; SNB-19, CNS Cancer; five-dose screen; read-out: GI50
MDA-MB-468 = experiment: NCI60 five-dose screen, Breast Cancer; conditions: Homo sapiens; MDA-MB-468, Breast Cancer; five-dose screen; read-out: GI50
PC-3 = experiment: NCI60 five-dose screen, Prostate Cancer; conditions: Homo sapiens; PC-3, Prostate Cancer; five-dose screen; read-out: GI50
786–0 = experiment: NCI60 five-dose screen, Renal Cancer; conditions: Homo sapiens; 786–0, Renal Cancer; five-dose screen; read-out: GI50
HCT-15 = experiment: NCI60 five-dose screen, Colon Cancer; conditions: Homo sapiens; HCT-15, Colon Cancer; five-dose screen; read-out: GI50
OVCAR-3 = experiment: NCI60 five-dose screen, Ovarian Cancer; conditions: Homo sapiens; OVCAR-3, Ovarian Cancer; five-dose screen; read-out: GI50
TK-10 = experiment: NCI60 five-dose screen, Renal Cancer; conditions: Homo sapiens; TK-10, Renal Cancer; five-dose screen; read-out: GI50
SN12C = experiment: NCI60 five-dose screen, Renal Cancer; conditions: Homo sapiens, Renal Cancer, five-dose screen, read-out: GI50
HS 578T = experiment: NCI60 five-dose screen, Breast Cancer; conditions: Homo sapiens; HS 578T, Breast Cancer; five-dose screen; read-out: GI50
SNB-75 = experiment: NCI60 five-dose screen, CNS Cancer; conditions: Homo sapiens; SNB-75, CNS Cancer; five-dose screen; read-out: GI50
BT-549 = experiment: NCI60 five-dose screen, Breast Cancer; conditions: Homo sapiens; BT-549, Breast Cancer; five-dose screen; read-out: GI50
UO-31 = experiment: NCI60 five-dose screen, Renal Cancer; conditions: Homo sapiens; UO-31, Renal Cancer; five-dose screen; read-out: GI50
K-562 = experiment: NCI60 five-dose screen, Leukemia; conditions: Homo sapiens, K562; K-562, Leukemia; five-dose screen; read-out: GI50
SK-OV-3 = experiment: NCI60 five-dose screen, Ovarian Cancer; conditions: Homo sapiens; SK-OV-3, Ovarian Cancer; five-dose screen; read-out: GI50
RPMI-8226 = experiment: NCI60 five-dose screen, Leukemia; conditions: Homo sapiens; RPMI-8226, Leukemia; five-dose screen; read-out: GI50
SK-MEL-28 = experiment: NCI60 five-dose screen, Melanoma; conditions: Homo sapiens; SK-MEL-28, Melanoma; five-dose screen; read-out: GI50
RXF 393 = experiment: NCI60 five-dose screen, Renal Cancer; conditions: Homo sapiens, RXF 393, Renal Cancer

Question: Which results are given for CCC12C=CCN3CCC4(c5cc(NC(=O)CN6CCN(C(c7ccc(F)cc7)c7ccc(F)cc7)CC6)c(OC)cc5N(C)C4C(O)(C(=O)OC)C1OC(C)=O)C32 (stereo not drawn) [Compound 20]?
Answer: GI50 (KM12): 3.98 µM; GI50 (SK-MEL-2): 3.02 µM; GI50 (A498): 5.62 µM; GI50 (U251): 6.03 µM; GI50 (NCI-H226): 6.31 µM; GI50 (IGROV1): 7.94 µM; GI50 (HT29): 2.88 µM; GI50 (T-47D): 3.55 µM; GI50 (OVCAR-8): 7.59 µM; GI50 (NCI-H522): 10.2 µM; GI50 (SF-295): 3.47 µM; GI50 (SF-539): 4.07 µM; GI50 (LOX IMVI): 3.24 µM; GI50 (SR): 2 µM; GI50 (DU-145): 6.31 µM; GI50 (HCT-116): 3.09 µM; GI50 (SF-268): 5.13 µM; GI50 (MDA-MB-435): 3.89 µM; GI50 (COLO 205): 2.45 µM; GI50 (EKVX): 4.07 µM; GI50 (SNB-19): 5.89 µM; GI50 (MDA-MB-468): 3.02 µM; GI50 (PC-3): 4.47 µM; GI50 (786–0): 7.76 µM; GI50 (HCT-15): 3.55 µM; GI50 (OVCAR-3): 4.37 µM; GI50 (TK-10): 7.59 µM; GI50 (SN12C): 4.9 µM; GI50 (HS 578T): 5.89 µM; GI50 (SNB-75): 1.82 µM; GI50 (BT-549): 2.57 µM; GI50 (UO-31): 5.25 µM; GI50 (K-562): 3.16 µM; GI50 (SK-OV-3): 5.89 µM; GI50 (RPMI-8226): 1.91 µM; GI50 (SK-MEL-28): 12.3 µM; GI50 (RXF 393): 2.69 µM

Question: What does the source list for CC[C@]12C=CCN3CC[C@@]4(c5ccc(OC)cc5N(C)[C@H]4[C@@](O)(C(=O)OC)[C@@H]1OC(=O)CCC(=O)N1CCN(c4ccc(C(F)(F)F)cc4)CC1)[C@@H]32 [Compound 28]?
Answer: GI50 (KM12): 4.79 µM; GI50 (SK-MEL-2): 2.75 µM; GI50 (A498): 5.75 µM; GI50 (U251): 3.31 µM; GI50 (NCI-H226): 3.16 µM; GI50 (IGROV1): 3.31 µM; GI50 (HT29): 2.57 µM; GI50 (T-47D): 3.55 µM; GI50 (OVCAR-8): 3.72 µM; GI50 (NCI-H522): 3.24 µM; GI50 (SF-295): 3.16 µM; GI50 (SF-539): 5.25 µM; GI50 (LOX IMVI): 3.24 µM; GI50 (SR): 2.29 µM; GI50 (DU-145): 5.25 µM; GI50 (HCT-116): 3.31 µM; GI50 (SF-268): 4.07 µM; GI50 (MDA-MB-435): 3.89 µM; GI50 (COLO 205): 1.91 µM; GI50 (EKVX): 3.63 µM; GI50 (SNB-19): 4.37 µM; GI50 (MDA-MB-468): 1.86 µM; GI50 (PC-3): 2.45 µM; GI50 (786–0): 5.01 µM; GI50 (HCT-15): 3.16 µM; GI50 (OVCAR-3): 3.72 µM; GI50 (TK-10): 4.07 µM; GI50 (SN12C): 4.17 µM; GI50 (HS 578T): 4.79 µM; GI50 (SNB-75): 2 µM; GI50 (BT-549): 3.31 µM; GI50 (UO-31): 2.29 µM; GI50 (K-562): 1.7 µM; GI50 (SK-OV-3): 3.89 µM; GI50 (RPMI-8226): 2.57 µM; GI50 (SK-MEL-28): 5.01 µM; GI50 (RXF 393): 2.29 µM

Question: Which results are given for CC[C@]12C=CCN3CC[C@@]4(c5ccc(OC)cc5N(C)[C@H]4[C@@](O)(C(=O)OC)[C@@H]1OC(=O)CCCN1CCN(c4ccc(C(F)(F)F)cc4)CC1)[C@@H]32 [Compound 22]?
Answer: GI50 (KM12): 2.14 µM; GI50 (SK-MEL-2): 2.19 µM; GI50 (A498): 3.72 µM; GI50 (U251): 2.24 µM; GI50 (NCI-H226): 2.88 µM; GI50 (IGROV1): 2 µM; GI50 (HT29): 1.74 µM; GI50 (T-47D): 3.02 µM; GI50 (OVCAR-8): 3.02 µM; GI50 (NCI-H522): 1.91 µM; GI50 (SF-295): 1.95 µM; GI50 (SF-539): 1.78 µM; GI50 (LOX IMVI): 1.7 µM; GI50 (SR): 1.7 µM; GI50 (DU-145): 2.88 µM; GI50 (HCT-116): 1.91 µM; GI50 (SF-268): 3.63 µM; GI50 (MDA-MB-435): 1.7 µM; GI50 (COLO 205): 1.78 µM; GI50 (EKVX): 3.09 µM; GI50 (SNB-19): 3.55 µM; GI50 (MDA-MB-468): 1.38 µM; GI50 (PC-3): 2.45 µM; GI50 (786–0): 2.57 µM; GI50 (HCT-15): 1.82 µM; GI50 (OVCAR-3): 2.45 µM; GI50 (TK-10): 2.88 µM; GI50 (SN12C): 2.63 µM; GI50 (HS 578T): 2.82 µM; GI50 (SNB-75): 1.66 µM; GI50 (BT-549): 3.02 µM; GI50 (UO-31): 1.86 µM; GI50 (K-562): 1.41 µM; GI50 (SK-OV-3): 3.72 µM; GI50 (RPMI-8226): 2.04 µM; GI50 (SK-MEL-28): 1.95 µM; GI50 (RXF 393): 1.55 µM
